The record followed here is patent publication US12421278B2, “Immunomodulators” (Bristol-Myers Squibb Company, priority 2020, dated 2025).

Starred links: 1 amine or outer side, 2 acyl side, 3 side chain; linkers in the order of their positions; H or OH if unused. Positions of bridges follow the written chain, without caps; N, C: chain ends. Non-standard residues stand in square brackets, D forms with d. Residues, ends and D or L forms follow the SMILES beside them. Trp(1-CH2CO2Me) = COC(=O)Cn1cc(C[C@H](N)C(=O)O)c2ccccc21; Trp(1-CH2COOH) = N[C@@H](Cc1cn(CC(=O)O)c2ccccc12)C(=O)O; X4 = O=C(O)c1cc(NC(=S)[*:1])cc(NC(=S)[*:2])c1; X2 = O=C([C@H](CCNCC=[*:3])N[*:1])[*:2]; X1 = O=C([C@H](CNCC=[*:3])N[*:1])[*:2]; X3 = O=C(NCCCCCCNC(=O)[*:2])[*:1]; Hyp = O=C(O)[C@@H]1C[C@@H](O)CN1; Oxalyl = O=C(C(=O)[*:2])[*:1]; NMeNle = CCCC[C@H](NC)C(=O)O; NEtAla = CCN[C@@H](C)C(=O)O; NMeA = CN[C@@H](C)C(=O)O; Dab = NCC[C@H](N)C(=O)O; Dap = NC[C@H](N)C(=O)O

T1 sequence (Q9NZQ7 18-239): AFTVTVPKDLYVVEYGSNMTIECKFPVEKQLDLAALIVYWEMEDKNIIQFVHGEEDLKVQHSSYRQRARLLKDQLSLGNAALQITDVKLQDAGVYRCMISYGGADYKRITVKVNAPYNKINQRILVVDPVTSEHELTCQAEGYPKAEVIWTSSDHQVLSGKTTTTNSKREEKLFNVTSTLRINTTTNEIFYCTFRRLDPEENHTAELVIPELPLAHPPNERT

The assay concerns the target T1, PD-1/PD-L1 (Homo sapiens, UniProt Q9NZQ7).
T1 construct: TVMV protease site (C); made in house; host or cells: HEK293T cells
As to the kind of experiment: PD-1/PD-L1 Homogenous Time-Resolved Fluorescence (HTRF) binding assay. Particulars: PD-L1-His 10 nM final, PD-1-Ig 20 nM final. From the text: The ability of the compounds of formula (I) to bind to PD-L1 was investigated using a PD-1/PD-L1 Homogenous Time-Resolved Fluorescence (HTRF) binding assay.
Homogenous Time-Resolved Fluorescence (HTRF) Binding Assay
The interaction of PD-1 and PD-L1 can be assessed using soluble, purified preparations of the extracellular domains of the two proteins. The PD-1 and PD-L1 protein extracellular domains were expressed as fusion proteins with detection tags, for PD-1, the tag was the Fc portion of Immunoglobulin (PD-1-Ig) and for PD-L1 it was the 6 histidine motif (PD-L1-His). All binding studies were performed in an HTRF assay buffer consisting of dPBS supplemented with 0.1% […] bovine serum albumin and 0.05% (v/v) Tween-20. For the h/PD-L1-His binding assay, inhibitors were pre-incubated with PD-L1-His (10 nM final) for 15 m in 4 μl of assay buffer, followed by addition of PD-1-Ig (20 nM final) in 1 μl of assay buffer and further incubation for 15 m. HTRF detection was achieved using europium crypate-labeled anti-Ig (1 nM final) and allophycocyanin (APC) labeled anti-His (20 nM final). Antibodies were diluted in HTRF detection buffer and 5 μl was dispensed on top of the binding reaction. The reaction mixture was allowed to equilibrate for 30 minutes and the resulting signal (665 nm/620 nm ratio) was obtained using an EnVision fluorometer. Additional binding assays were established between the human proteins PD-1-Ig/PD-L2-His (20 & 5 nM, respectively) and CD80-His/PD-L1-Ig (100 & 10 nM, respectively).
Recombinant Proteins: Human PD-1 (25-167) with a C-terminal human Fc domain of immunoglobulin G (Ig) epitope tag [hPD-1 (25-167)-3S-IG] and human PD-L1 (18-239) with a C-terminal His epitope tag [hPD-L1(18-239)-TVMV-His] were expressed in HEK293T cells and purified sequentially by ProteinA affinity chromatography and size exclusion chromatography. Human PD-L2-His and CD80-His was obtained through commercial sources.
Table 1 lists the IC50 values for representative examples of this disclosure measured in the PD-1/PD-L1 Homogenous Time-Resolved Fluorescence (HTRF) binding assay.
In general terms: Time-resolved FRET reads energy transfer from a long-lived donor to a nearby acceptor.
Compound `CCCC[C@H]1C(=O)N(C)[C@@H](CCCC)C(=O)N[C@@H](CC(C)C)C(=O)N[C@H](C(=O)NCC(N)=O)CSCC(=O)N[C@@H](Cc2ccc(O)cc2)C(=O)N(C)[C@@H](C)C(=O)N[C@@H](CC(N)=O)C(=O)N2CCC[C@H]2C(=O)N[C@H]2CNC(=O)C(=O)NCC[C@H](NC(=O)[C@H](Cc3c[nH]c4ccccc34)NC(=O)[C@@H]3C[C@@H](O)CN3C(=O)[C@H](CC(C)C)NC2=O)C(=O)N[C@@H](Cc2cn(CC(=O)OC)c3ccccc23)C(=O)N1C` [Example 1003] ({CH2CO}-Y[NMeA]NP[Dap]L[Hyp]W[Dab][Trp(1-CH2CO2Me)][NMeNle][NMeNle]LCG-NH2; linker 5-9 via Oxalyl; thioether N-14) returned an IC50 of 120 nM. This counts as sub-micromolar.
The value for `CCCC[C@H]1C(=O)N(C)[C@@H](CCCC)C(=O)N[C@@H](CC(C)C)C(=O)N[C@H](C(=O)NCC(N)=O)CSCC(=O)N[C@@H](Cc2ccc(O)cc2)C(=O)N(C)[C@@H](C)C(=O)N[C@@H](CC(N)=O)C(=O)N2CCC[C@H]2C(=O)N[C@H]2CNC(=O)NCCCCCCNC(=O)NCC[C@H](NC(=O)[C@H](Cc3c[nH]c4ccccc34)NC(=O)[C@@H]3C[C@@H](O)CN3C(=O)[C@H](CC(C)C)NC2=O)C(=O)N[C@@H](Cc2cn(CC(=O)O)c3ccccc23)C(=O)N1C` [Example 1001] ({CH2CO}-Y[NMeA]NP[Dap]L[Hyp]W[Dab][Trp(1-CH2COOH)][NMeNle][NMeNle]LCG-NH2; linker 5-9 via X3; thioether N-14) was 4 nM; that for `CCCC[C@H]1C(=O)N(C)[C@@H](CCCC)C(=O)N[C@@H](CC(C)C)C(=O)N[C@H](C(=O)NCC(N)=O)CSCC(=O)N[C@@H](Cc2ccc(O)cc2)C(=O)N(C)[C@H]2CN3CC[C@H](NC(=O)[C@H](Cc4c[nH]c5ccccc45)NC(=O)[C@@H]4C[C@@H](O)CN4C(=O)[C@H](CC(C)C)NC(=O)[C@H](CNc4c3c(=O)c4=O)NC(=O)[C@@H]3CCCN3C(=O)[C@H](CC(N)=O)NC2=O)C(=O)N[C@@H](Cc2cn(CC(=O)O)c3ccccc23)C(=O)N1C` [Example 1002] was 210 nM; that for `CCCC[C@H]1C(=O)N(C)[C@@H](CCCC)C(=O)N[C@@H](CC(C)C)C(=O)N[C@H](C(=O)NCC(N)=O)CSCC(=O)N[C@@H](Cc2ccc(O)cc2)C(=O)N(C)[C@@H](C)C(=O)N[C@@H](CC(N)=O)C(=O)N2CCC[C@H]2C(=O)N[C@H]2CNC(=S)Nc3cc(cc(C(=O)O)c3)NC(=S)NCC[C@H](NC(=O)[C@H](Cc3c[nH]c4ccccc34)NC(=O)[C@@H]3C[C@@H](O)CN3C(=O)[C@H](CC(C)C)NC2=O)C(=O)N[C@@H](Cc2cn(CC(=O)O)c3ccccc23)C(=O)N1C` [Example 1007] ({CH2CO}-Y[NMeA]NP[Dap]L[Hyp]W[Dab][Trp(1-CH2COOH)][NMeNle][NMeNle]LCG-NH2; linker 5-9 via X4; thioether N-14) was 78 nM.
The compound `CCCC[C@H]1C(=O)N(C)[C@@H](CCCC)C(=O)N[C@@H](CC(C)C)C(=O)N[C@H](C(=O)NCC(N)=O)CSCC(=O)N[C@@H](Cc2ccc(O)cc2)C(=O)N(C)[C@@H](C)C(=O)N[C@@H](CC(N)=O)C(=O)N(CC)[C@@H](C)C(=O)N[C@H]2CNC/C=C\CNCC[C@H](NC(=O)[C@H](Cc3c[nH]c4ccccc34)NC(=O)[C@@H]3C[C@@H](O)CN3C(=O)[C@H](CC(C)C)NC2=O)C(=O)N[C@@H](Cc2cn(CC(=O)O)c3ccccc23)C(=O)N1C` [Example 1005] ({CH2CO}-Y[NMeA]N[NEtAla][X1]L[Hyp]W[X2][Trp(1-CH2COOH)][NMeNle][NMeNle]LCG-NH2; staple (Z) 5-9; thioether N-14) displayed a half-maximal inhibitory concentration (IC50) of 8.3 nM.
The value for `CCCC[C@H]1C(=O)N(C)[C@@H](CCCC)C(=O)N[C@@H](CC(C)C)C(=O)N[C@H](C(=O)NCC(N)=O)CSCC(=O)N[C@@H](Cc2ccc(O)cc2)C(=O)N(C)[C@@H](C)C(=O)N[C@@H](CC(N)=O)C(=O)N2CCC[C@H]2C(=O)N[C@H]2CNCC(O)COCC(O)CNCC[C@H](NC(=O)[C@H](Cc3c[nH]c4ccccc34)NC(=O)[C@@H]3C[C@@H](O)CN3C(=O)[C@H](CC(C)C)NC2=O)C(=O)N[C@@H](Cc2cn(CC(=O)O)c3ccccc23)C(=O)N1C` (stereo partly drawn) [Example 1004] was 11 nM.

As usually defined, the IC50 is the point on the concentration scale where inhibition reaches its midpoint. Low readings indicate greater potency in that assay, high ones weaker potency in that assay.
